Reference: patent US20180000778A1, “SMALL MOLECULE ANTAGONISTS OF DUSP5 AND METHODS OF USE” (THE MEDICAL COLLEGE OF WISCONSIN, INC., priority 2015, published 2018)

Experiments:
[1] = system: pERK levels in HUVEC cells; experiment: pERK levels in HUVEC cells, western blot; format: cell-based, Human; details: HUVECs incubated 2 hours, pERK relative to total ERK; Na3VO4 at 200 μM
Method: Cell Culture and Western Blots.
Human Umbilical Vein Endothelial Cells (HUVECs) were maintained in EBM2 media (Lonza, CC-3156) supplemented with a combined serum and growth factor kit (Lonza, CC-4176). Cells were incubated with the indicated concentrations of drug for 2 h and lysed with RIPA buffer (Sigma, R0278) on ice. Cell lysates were cleared by centrifugation at 16,300×g for 30 min. The resulting supernatants were isolated and protein concentration determined by Lowry assay (DC protein assay, BioRad). 2× laemmli sample buffer was added to equal amounts of protein and separated by SDS-PAGE. The protein gels were transferred to polyvinylidene difluoride (PVDF) and immunoblotted using antibodies to phosphorylated ERK (Cell Signaling, #9106) and total ERK (Cell Signaling, #9102). Bound antibodies were visualized using horseradish peroxidase-linked anti-rabbit IgG, anti-mouse IgG (Cell Signaling Tech., #7074 and #7076) and ECL reagents (Thermo Scientific, 34080) according to the manufacturer's protocol.

DUSP22 (MKPX) = DUSP22 (MKPX) (Homo sapiens, UniProt Q9NRW4); experiment: Phosphatase profiling, pNPP substrate; format: biochemical; details: 30 μM, triplicate; negative = inhibition; listed as CSDDD2320
DUSP22 (MKPX), sequence (Q9NRW4 whole entry, species assumed): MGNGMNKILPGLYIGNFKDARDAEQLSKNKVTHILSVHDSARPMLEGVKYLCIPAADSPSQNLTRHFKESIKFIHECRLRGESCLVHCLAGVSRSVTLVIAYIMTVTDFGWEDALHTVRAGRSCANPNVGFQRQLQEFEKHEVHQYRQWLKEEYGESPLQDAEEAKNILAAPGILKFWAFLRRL
Method: (§1) Assays were performed to profile compound CSDDD2320 against 21 phosphatase targets at 1 concentration (30 μM) in triplicate measurements. The aim was to identify whether the compound can affect the activity of the various phosphatase targets selected.
(§2) Protein Phosphatase Assay: The DUSP22, PTPN2 (TC-PTP), PTPN7 (LC-PTP), PTPRA (LRP), PTPRC (CD45), PTPRE, PTPRS, PTPN1(PTP1B) and PTPN13(FAP-1) phosphatase activity was determined by performing assays at 37° C. for 15 minutes in a final volume of 100 μl according to the following assay reaction recipe:
(§3) Component 1. 5 μl of diluted active protein phosphatase
(§4) Component 2. 50 μl of 1.5 mM pNPP substrate assay solution
(§5) Component 3. 25 μl of phosphatase assay buffer
(§6) Component 4. 20 μl of compound (150 μM) or 10% DMSO
(§7) The assay was started by incubating the reaction mixture at 37° C. for 15 minutes. After the 15 minute incubation period, the assay was terminated by the addition of 25 μl of 2N NaOH stopping solution. The absorbance of the reaction solution was measured in a spectrophotometer at 405 nm. Blank control was set up that included all the assay components except the addition of the pNPP substrate (replaced with equal volume of phosphatase assay buffer). The corrected activity for various phosphatase targets was determined by removing the blank control value.

PTPN1 (PTP1B) = PTPN1 (PTP1B) (Homo sapiens, UniProt P18031); experiment: Phosphatase profiling, pNPP substrate; format: biochemical; details: 30 μM, triplicate; negative = inhibition
Method: as §1, §2, §3, §4, §5, §6, §7

PTPN13 (FAP-1) = PTPN13 (FAP-1) (Homo sapiens, UniProt Q12923); experiment: Phosphatase profiling, pNPP substrate; format: biochemical; details: 30 μM, triplicate; positive = activation
Method: as §1, §2, §3, §4, §5, §6, §7

PTPN2 (TC-PTP) = PTPN2 (TC-PTP) (Homo sapiens, UniProt P17706); experiment: Phosphatase profiling, pNPP substrate; format: biochemical; details: 30 μM, triplicate; positive = activation
PTPN2 (TC-PTP), sequence (P17706 whole entry, species assumed): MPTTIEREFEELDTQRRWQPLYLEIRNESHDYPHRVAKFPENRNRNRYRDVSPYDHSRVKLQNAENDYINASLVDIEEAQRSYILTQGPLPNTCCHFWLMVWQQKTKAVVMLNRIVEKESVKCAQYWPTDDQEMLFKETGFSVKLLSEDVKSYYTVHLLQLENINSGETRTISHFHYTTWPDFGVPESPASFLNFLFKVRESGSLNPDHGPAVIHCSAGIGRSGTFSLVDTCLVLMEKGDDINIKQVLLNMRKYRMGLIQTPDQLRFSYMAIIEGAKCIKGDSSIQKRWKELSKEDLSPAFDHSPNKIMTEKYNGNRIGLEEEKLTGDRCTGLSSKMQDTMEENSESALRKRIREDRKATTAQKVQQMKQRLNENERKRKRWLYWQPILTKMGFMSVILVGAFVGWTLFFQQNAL
Method: as §1, §2, §3, §4, §5, §6, §7

PTPN7 (LC-PTP) = PTPN7 (LC-PTP) (Homo sapiens, UniProt P35236); experiment: Phosphatase profiling, pNPP substrate; format: biochemical; details: 30 μM, triplicate; positive = activation
PTPN7 (LC-PTP), sequence (P35236 whole entry, species assumed): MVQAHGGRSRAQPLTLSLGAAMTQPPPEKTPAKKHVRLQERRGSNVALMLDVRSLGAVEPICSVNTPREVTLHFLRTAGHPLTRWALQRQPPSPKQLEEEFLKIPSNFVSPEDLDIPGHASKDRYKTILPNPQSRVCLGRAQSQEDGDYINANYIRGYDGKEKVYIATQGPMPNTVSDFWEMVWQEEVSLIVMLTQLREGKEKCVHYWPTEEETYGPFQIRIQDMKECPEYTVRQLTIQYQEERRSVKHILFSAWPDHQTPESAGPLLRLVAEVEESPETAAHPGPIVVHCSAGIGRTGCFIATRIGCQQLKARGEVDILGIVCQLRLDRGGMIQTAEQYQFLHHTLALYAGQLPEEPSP
Method: as §1, §2, §3, §4, §5, §6, §7

PTPRA (LRP) = PTPRA (LRP) (Homo sapiens, UniProt P18433); experiment: Phosphatase profiling, pNPP substrate; format: biochemical; details: 30 μM, triplicate; positive = activation
PTPRA (LRP), sequence (P18433 20-802, species assumed): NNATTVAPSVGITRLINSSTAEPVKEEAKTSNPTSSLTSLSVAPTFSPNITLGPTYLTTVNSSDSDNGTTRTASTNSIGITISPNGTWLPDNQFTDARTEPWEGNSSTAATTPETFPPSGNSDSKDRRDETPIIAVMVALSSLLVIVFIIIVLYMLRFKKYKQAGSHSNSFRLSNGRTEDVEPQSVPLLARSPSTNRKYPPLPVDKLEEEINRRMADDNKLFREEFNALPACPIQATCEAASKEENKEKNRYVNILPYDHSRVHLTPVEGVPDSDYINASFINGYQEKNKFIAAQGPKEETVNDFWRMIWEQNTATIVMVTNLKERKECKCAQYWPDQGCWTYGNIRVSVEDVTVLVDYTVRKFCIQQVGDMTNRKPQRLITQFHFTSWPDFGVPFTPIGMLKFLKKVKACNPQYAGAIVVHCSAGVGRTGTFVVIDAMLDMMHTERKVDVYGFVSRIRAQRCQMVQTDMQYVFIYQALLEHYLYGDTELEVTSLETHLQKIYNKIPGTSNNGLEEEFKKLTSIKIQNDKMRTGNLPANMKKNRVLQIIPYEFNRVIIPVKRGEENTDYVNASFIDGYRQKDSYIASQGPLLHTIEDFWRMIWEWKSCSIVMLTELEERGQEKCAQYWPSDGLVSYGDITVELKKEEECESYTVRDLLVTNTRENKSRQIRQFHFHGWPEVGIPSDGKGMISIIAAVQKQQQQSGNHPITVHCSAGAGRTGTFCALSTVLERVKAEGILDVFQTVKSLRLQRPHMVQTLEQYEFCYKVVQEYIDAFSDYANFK
Method: as §1, §2, §3, §4, §5, §6, §7

PTPRC (CD45) = PTPRC (CD45) (Homo sapiens, UniProt P08575); experiment: Phosphatase profiling, pNPP substrate; format: biochemical; details: 30 μM, triplicate; negative = inhibition; listed as CSDDD2320
PTPRC (CD45), sequence (P08575 26-1306, species assumed): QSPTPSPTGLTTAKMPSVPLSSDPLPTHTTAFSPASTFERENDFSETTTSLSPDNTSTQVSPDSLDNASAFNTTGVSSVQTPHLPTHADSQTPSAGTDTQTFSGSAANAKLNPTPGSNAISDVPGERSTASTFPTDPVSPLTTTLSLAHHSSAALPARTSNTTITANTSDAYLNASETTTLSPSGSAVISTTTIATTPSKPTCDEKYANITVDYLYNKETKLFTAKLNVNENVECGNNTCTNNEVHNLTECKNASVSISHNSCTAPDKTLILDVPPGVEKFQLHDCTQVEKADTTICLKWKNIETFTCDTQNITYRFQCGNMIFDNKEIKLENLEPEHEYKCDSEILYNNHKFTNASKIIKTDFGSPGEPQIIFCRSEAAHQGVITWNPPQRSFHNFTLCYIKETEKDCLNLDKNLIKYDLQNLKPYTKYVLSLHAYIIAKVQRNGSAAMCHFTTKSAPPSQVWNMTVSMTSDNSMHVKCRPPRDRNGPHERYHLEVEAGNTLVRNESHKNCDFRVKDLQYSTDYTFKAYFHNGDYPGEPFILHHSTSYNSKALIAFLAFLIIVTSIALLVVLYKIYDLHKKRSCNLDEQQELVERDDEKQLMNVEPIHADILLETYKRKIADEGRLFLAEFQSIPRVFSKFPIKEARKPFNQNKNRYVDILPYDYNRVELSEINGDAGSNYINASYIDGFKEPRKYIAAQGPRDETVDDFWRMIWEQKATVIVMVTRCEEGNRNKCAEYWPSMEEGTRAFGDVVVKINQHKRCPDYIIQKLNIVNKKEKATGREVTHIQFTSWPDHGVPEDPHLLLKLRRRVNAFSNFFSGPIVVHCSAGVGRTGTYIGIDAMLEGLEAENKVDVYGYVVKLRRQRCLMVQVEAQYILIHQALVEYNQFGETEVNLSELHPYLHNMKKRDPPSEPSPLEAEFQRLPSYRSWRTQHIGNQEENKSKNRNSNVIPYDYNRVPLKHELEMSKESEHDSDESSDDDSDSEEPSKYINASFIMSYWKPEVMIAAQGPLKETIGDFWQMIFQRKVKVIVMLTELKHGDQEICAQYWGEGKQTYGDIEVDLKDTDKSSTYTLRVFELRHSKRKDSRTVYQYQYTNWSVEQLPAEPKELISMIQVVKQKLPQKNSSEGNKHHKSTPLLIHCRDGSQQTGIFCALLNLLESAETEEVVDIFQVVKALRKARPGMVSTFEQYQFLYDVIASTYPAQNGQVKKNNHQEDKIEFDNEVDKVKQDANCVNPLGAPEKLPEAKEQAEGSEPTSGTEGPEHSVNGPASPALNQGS
Method: as §1, §2, §3, §4, §5, §6, §7

PTPRE = PTPRE (Homo sapiens, UniProt P23469); experiment: Phosphatase profiling, pNPP substrate; format: biochemical; details: 30 μM, triplicate; negative = inhibition; listed as CSDDD2320
PTPRE, sequence (P23469 20-700, species assumed): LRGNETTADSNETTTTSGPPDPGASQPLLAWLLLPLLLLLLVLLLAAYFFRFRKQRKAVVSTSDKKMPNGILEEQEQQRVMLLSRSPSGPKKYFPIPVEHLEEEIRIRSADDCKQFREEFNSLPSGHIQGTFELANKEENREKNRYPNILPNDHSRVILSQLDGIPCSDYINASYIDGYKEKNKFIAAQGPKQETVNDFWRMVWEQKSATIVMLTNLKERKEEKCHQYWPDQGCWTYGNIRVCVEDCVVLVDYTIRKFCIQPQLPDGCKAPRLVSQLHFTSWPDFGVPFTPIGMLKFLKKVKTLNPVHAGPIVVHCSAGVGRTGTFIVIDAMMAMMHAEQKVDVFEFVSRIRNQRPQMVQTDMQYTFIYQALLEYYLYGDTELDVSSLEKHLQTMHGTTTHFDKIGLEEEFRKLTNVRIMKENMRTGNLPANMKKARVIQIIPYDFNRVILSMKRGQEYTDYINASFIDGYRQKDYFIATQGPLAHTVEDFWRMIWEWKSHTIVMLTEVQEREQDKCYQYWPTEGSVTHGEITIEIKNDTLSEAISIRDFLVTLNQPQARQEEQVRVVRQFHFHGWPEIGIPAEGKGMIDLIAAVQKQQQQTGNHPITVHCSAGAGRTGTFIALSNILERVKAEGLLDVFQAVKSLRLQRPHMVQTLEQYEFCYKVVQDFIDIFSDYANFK
Method: as §1, §2, §3, §4, §5, §6, §7

PTPRS (PTP-sigma) = PTPRS (PTP-sigma) (Homo sapiens, UniProt Q13332); experiment: Phosphatase profiling, pNPP substrate; format: biochemical; details: 30 μM, triplicate; negative = inhibition
Method: as §1, §2, §3, §4, §5, §6, §7

CDC25A = CDC25A (Homo sapiens, UniProt P30304); experiment: Phosphatase profiling, Biomol Green; format: biochemical; details: 30 μM, triplicate; positive = activation
Method: as §1
(§8) The PTPN6 (SHP1), PTPRF (LAR), PP1A, PP1B, PP2A, PTPN12(PTP-PEST), PTPN11(SHP2), CDC25A, CDC25B, CDC25C, PP2Ca, and PP2Cg phosphatase activity was determined by performing assays at 37° C. for 15 minutes in a final volume of 50 μl according to the following assay reaction recipe:
(§9) Component 1. 10 μl of diluted active protein phosphatase
(§10) Component 2. 5 μl of 1 mM tyrosine phosphopeptide-2 substrate (for PTPN6, PTPRF, PTPN12, and PTPN11) or threonine phosphopeptide substrate (for PP1A, PP1B, PP2A and PP2Cg) or PI(3,4,5)P3 substrate (for PTEN) or OMFP substrate (for CDC25A, CDC25B and CDC25C)
as §5
(§11) Component 4. 10 μl of compound (150 μM) or 10% DMSO
(§12) The assay was started by incubating the reaction mixture at 37° C. for 15 minutes. After the 15 minutes incubation period, the assay was terminated by the addition of 100 μl of Biomol Green reagent. The absorbance of the reaction solution was measured in a spectrophotometer at 650 nm. Blank control was set up that included all the assay components except the addition of the tyrosine phosphopeptide-2 substrate or related substrate (replace with equal volume of phosphatase assay buffer). The corrected activity for various phosphatase targets was determined by removing the blank control value.

PP2Cg = PP2Cg (Homo sapiens, UniProt O15355); experiment: Phosphatase profiling, Biomol Green; format: biochemical; details: 30 μM, triplicate
PP2Cg, sequence (O15355 whole entry): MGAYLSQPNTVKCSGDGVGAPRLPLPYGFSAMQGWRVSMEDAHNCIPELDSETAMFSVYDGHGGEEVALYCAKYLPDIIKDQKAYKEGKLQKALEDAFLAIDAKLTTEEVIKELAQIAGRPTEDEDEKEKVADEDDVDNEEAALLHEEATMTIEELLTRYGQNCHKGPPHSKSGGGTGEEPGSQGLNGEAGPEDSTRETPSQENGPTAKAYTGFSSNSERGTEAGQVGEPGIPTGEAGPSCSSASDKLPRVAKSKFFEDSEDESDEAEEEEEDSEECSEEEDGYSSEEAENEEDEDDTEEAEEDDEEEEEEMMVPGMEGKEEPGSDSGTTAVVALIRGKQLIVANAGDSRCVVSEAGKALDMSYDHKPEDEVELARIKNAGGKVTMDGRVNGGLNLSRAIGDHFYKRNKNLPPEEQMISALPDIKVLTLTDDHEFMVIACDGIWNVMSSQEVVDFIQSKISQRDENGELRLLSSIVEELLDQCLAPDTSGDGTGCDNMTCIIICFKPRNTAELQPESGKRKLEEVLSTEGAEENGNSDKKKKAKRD
Method: as §1, §8, §9, §10, §5, §11, §12

PTPN6 (SHP1) = PTPN6 (SHP1) (Homo sapiens, UniProt P29350); experiment: Phosphatase profiling, Biomol Green; format: biochemical; details: 30 μM, triplicate; negative = inhibition
PTPN6 (SHP1), sequence (P29350 whole entry, species assumed): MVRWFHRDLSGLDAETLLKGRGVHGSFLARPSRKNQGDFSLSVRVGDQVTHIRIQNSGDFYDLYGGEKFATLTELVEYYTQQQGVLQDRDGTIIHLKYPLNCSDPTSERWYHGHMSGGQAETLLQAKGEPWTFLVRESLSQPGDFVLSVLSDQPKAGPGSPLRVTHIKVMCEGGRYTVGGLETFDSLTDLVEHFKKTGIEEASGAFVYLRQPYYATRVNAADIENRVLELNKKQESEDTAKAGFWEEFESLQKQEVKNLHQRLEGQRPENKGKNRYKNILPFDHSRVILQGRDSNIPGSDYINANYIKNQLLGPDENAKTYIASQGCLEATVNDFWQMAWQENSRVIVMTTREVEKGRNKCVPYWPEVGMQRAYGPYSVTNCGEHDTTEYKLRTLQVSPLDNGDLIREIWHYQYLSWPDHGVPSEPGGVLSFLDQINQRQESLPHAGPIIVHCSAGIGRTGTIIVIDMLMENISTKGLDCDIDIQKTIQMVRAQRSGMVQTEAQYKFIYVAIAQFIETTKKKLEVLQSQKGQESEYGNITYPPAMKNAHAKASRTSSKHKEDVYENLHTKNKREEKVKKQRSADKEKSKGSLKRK
Method: as §1, §8, §9, §10, §5, §11, §12

PTPRF (LAR) = PTPRF (LAR) (Homo sapiens, UniProt P10586); experiment: Phosphatase profiling, Biomol Green; format: biochemical; details: 30 μM, triplicate
Method: as §1, §8, §9, §10, §5, §11, §12

O=S(=O)([O-])c1ccc2[nH]c3c(S(=O)(=O)[O-])cc(S(=O)(=O)[O-])cc3c2c1.[Na+].[Na+].[Na+] [RR505, Carbazole-1,3,6-trisulfonic acid, Trisodium Salt]
effect on pERK levels [1]: do not show biologically useful levels of potency

O=S(=O)(O)c1cc(O)c2c(S(=O)(=O)O)cccc2c1 [RR527]
% Change (activity change compared to control) (DUSP22 (MKPX)): −13% | % Change (activity change compared to control) (PTPN1 (PTP1B)): −4% | % Change (activity change compared to control) (PTPN13 (FAP-1)): 6% | % Change (activity change compared to control) (PTPN2 (TC-PTP)): 2% | % Change (activity change compared to control) (PTPN7 (LC-PTP)): 7% | % Change (activity change compared to control) (PTPRA (LRP)): 5% | % Change (activity change compared to control) (PTPRC (CD45)): −12% | % Change (activity change compared to control) (PTPRE): −11% | % Change (activity change compared to control) (PTPRS (PTP-sigma)): −6% | % Change (activity change compared to control) (CDC25A): 7% | % Change (activity change compared to control) (PP2Cg): 0% | % Change (activity change compared to control) (PTPN6 (SHP1)): −5% | % Change (activity change compared to control) (PTPRF (LAR)): 0%
